Values joined by “and” are separate entries in the source; they are usually repeats but may differ in a detail not shown here. Equal values may be shown once.

Data set [1] in a line: Free fraction (free of protein binding) of the PET radioligand. It is filed as in vitro ADME. The following applies: read-out: free fractions, free of protein binding.
The next data set relates to LPA1. Put plainly: In-vivo PET imaging in cynomolgus monkeys, lung SUV and % displacement. Set-up: species or system cynomolgus monkey. The following applies: healthy cynomolgus monkeys, listed as [^18F]-(1S,3S)-3-(6-(5-((((4-(fluoro)butyl)(methyl)carbamoyl)oxy)methyl)-1-meth)). As to the method: [^18F]-(1S,3S)-3-((6-(5-((((4-(fluoro)butyl)(methyl)carbamoyl)oxy)methyl)-1-methyl-1H-1,2,3-triazol-4-yl)-2-methylpyridin-3-yl)oxy)cyclohexane-1-carboxylic acid was tested as an LPA1 PET radioligand to validate the target engagement of LPA1 antagonist used in normal healthy cynomolgus monkeys and to support future clinical use of this agent as a PET radioligand. In this experiment, the specific binding to LPA1, PET imaging in normal healthy cynomolgus monkeys (n=3) was performed. PET images were acquired at baseline and again at after oral administration of an LPA1 antagonist (3, 10, and 30 mg/kg) or vehicle solution (0.5% Methocel A4M: 0.1% Tween 80 (Polysorbate 80): 99.4% Water) only. The oral dosing time of LPA1 antagonist or vehicle was 3 hours prior to [^18F]-labeled antagonist injection. Cynomolgus monkeys on study were fasted beginning the morning of the imaging day. Veterinary Scientists induced initial anesthesia pre-op cocktail of 0.02 mg/kg Atropine, and 5 mg/kg Telazol, 0.1 mg/kg Hydromorphone IM. […] Vital signs were continuously monitored throughout the imaging study. […] After returning to a conscious state, the monkey was transferred to an isolation room with food and water until the radioactivity was decayed to background levels. […]

Turning to `Cc1nc(-c2nnn(C)c2COC(=O)N(C)CCCC[18F])ccc1O[C@H]1CCC[C@H](C(=O)O)C1` [Example 16], the fraction unbound in data set [1] lay within 0.05 to 0.11. Further, in the data set with LPA1 (individual baseline scans), the “SUV in Lung (60-90 min)” value is 0.307 and 0.428 and 0.333 and 0.273 and 0.356 and 0.379 and 0.403 and 0.459. The “average SUV at baseline for individual animals” value with LPA1 (lung, mean of baseline scans per animal) was 0.398 and 0.321 and 0.391.

The values are drawn from patent publication US20210379210A1, “RADIOLIGANDS FOR IMAGING THE LPA1 RECEPTOR” (BRISTOL-MYERS SQUIBB COMPANY, priority 2018, published 2021).
